Experimental data taken from PMC6030199, “The mitochondrial citrate carrier, SLC25A1, drives stemness and therapy resistance in non-small cell lung cancer” (Cell Death and Differentiation, 2018).
pKd: −log10 of the molar value.

Target: T1, SLC25A1 (mitochondrial citrate carrier) (Homo sapiens, UniProt P53007)
T1 construct: Histidine-tagged recombinant purified SLC25A1
Assay: SPR (Biacore […], NTA chip, […] steady-state fit)
Type: binding

T1 sequence (P53007 14-311): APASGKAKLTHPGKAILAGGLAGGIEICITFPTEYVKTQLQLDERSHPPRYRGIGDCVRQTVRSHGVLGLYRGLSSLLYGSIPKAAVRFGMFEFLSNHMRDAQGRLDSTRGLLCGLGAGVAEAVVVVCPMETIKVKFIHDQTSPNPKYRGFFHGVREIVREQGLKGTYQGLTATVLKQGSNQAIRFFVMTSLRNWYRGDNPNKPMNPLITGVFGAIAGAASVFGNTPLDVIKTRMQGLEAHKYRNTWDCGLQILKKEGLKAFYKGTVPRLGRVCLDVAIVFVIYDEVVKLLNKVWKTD

SMILES	pKd
O=C(O)c1ccc(Cl)c(S(=O)(=O)Nc2cccc([N+](=O)[O-])c2)c1 [CTPI-1]	4.20
O=C(O)c1ccccc1NS(=O)(=O)c1ccc(Cl)c([N+](=O)[O-])c1 [CTPI-2]	5.46
